Key:
Histamine H3 receptor [1] = molecular target: T1, Histamine H3 receptor (Homo sapiens, UniProt Q9Y5N1); assay: Ratio of dispyrin Ki to compound Ki for human histamine H3 receptor
Histamine H3 receptor [2] = molecular target: T1, Histamine H3 receptor; assay: Displacement of [3H]SMT from human histamine H3 receptor
Histamine H3 receptor [3] = molecular target: T1, Histamine H3 receptor; assay: Ratio of dispyrin IC50 to compound IC50 for human histamine H3 receptor

T1 sequence (Q9Y5N1 whole entry): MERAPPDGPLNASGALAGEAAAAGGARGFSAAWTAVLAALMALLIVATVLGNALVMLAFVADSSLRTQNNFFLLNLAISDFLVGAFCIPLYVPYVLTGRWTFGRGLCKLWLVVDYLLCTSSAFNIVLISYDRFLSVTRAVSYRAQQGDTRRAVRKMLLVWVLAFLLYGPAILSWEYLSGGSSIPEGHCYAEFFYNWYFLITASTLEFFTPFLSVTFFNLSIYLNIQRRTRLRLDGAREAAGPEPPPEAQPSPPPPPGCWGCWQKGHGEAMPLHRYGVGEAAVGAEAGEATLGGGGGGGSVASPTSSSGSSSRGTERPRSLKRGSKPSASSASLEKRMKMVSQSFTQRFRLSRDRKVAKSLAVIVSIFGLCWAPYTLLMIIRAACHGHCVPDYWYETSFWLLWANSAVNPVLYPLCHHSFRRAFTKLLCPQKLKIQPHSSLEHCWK

Row | Structure (SMILES) | Ratio Ki (Histamine H3 receptor [1]) | IC50 (Histamine H3 receptor [2]) | Ki (Histamine H3 receptor [2]) | Ratio IC50 (Histamine H3 receptor [3])
1 | Cn1cccc1C(=O)NCCc1ccc(OCCN2CCCC2)c(Br)c1 | – | 310 nM | – | –
2 | O=C(NCCc1ccc(OCCN2CCOCC2)c(Br)c1)c1ccc[nH]1 | – | 59200 nM | 26400 nM | –
3 | CN1CCCC(COc2ccc(CCNC(=O)c3cccn3C)cc2Br)C1 (centres undefined) | – | 3620 nM | 1650 nM | –
4 | CN(C)CCCOc1ccc(CCNC(=O)c2ccc[nH]2)cc1Br | – | – | 1360 nM | –
5 | CN1CCCC(COc2ccc(CCNC(=O)c3cc(Br)c[nH]3)cc2Br)C1 (centres undefined) | – | 2940 nM | 1330 nM | –
6 | CN(C)CCCOc1ccc(CCNC(=O)c2ccc(Br)o2)cc1Br | – | – | 2290 nM | –
7 | O=C(NCCc1ccc(OCCN2CCOCC2)c(Br)c1)c1cc(Br)cs1 | – | 30400 nM | 13500 nM | –
8 | O=C(NCCc1ccc(OCCN2CCOCC2)c(Br)c1)c1ccc(Br)o1 | – | 73200 nM | 32500 nM | –
9 | CC1CCCN1CCOc1ccc(CCNC(=O)c2cc(Br)cs2)cc1Br (single isomer, unassigned; enantiomer 1) | – | 710 nM | 310 nM | –
10 | O=C(NCCc1ccc(OCCN2CCCC2)c(Br)c1)c1cc(Br)cs1 | 13 | – | – | 13
11 | CN1CCCC(COc2ccc(CCNC(=O)c3ccc(Br)o3)cc2Br)C1 (centres undefined) | – | 4560 nM | – | –
12 | CN1CCCC(COc2ccc(CCNC(=O)c3cc(Br)cs3)cc2Br)C1 (centres undefined) | – | 3730 nM | 1250 nM | –
13 | O=C(NCCc1ccc(OCCN2CCCC2)c(Br)c1)c1cnco1 | – | 80 nM | 30 nM | –
14 | O=C(NCCc1ccc(OCCN2CCC(F)C2)c(Br)c1)c1cc(Br)cs1 (single isomer, unassigned; enantiomer 1) | – | 2110 nM | 1100 nM | –

The next lines start with the values.

Row | Ratio Ki (Histamine H3 receptor [1]) | IC50 (Histamine H3 receptor [2]) | Ki (Histamine H3 receptor [2]) | Ratio IC50 (Histamine H3 receptor [3]) | Structure (SMILES)
15 | 33 | 70 nM | 30 nM | 33 | O=C(NCCc1ccc(OCCN2CCCC2)c(Br)c1)c1nccs1
16 | – | – | 1520 nM | – | CN1CCCC(COc2ccc(CCNC(=O)c3ccc[nH]3)cc2Br)C1 (centres undefined)
17 | – | 39600 nM | 17600 nM | – | Cn1cccc1C(=O)NCCc1ccc(OCCN2CCOCC2)c(Br)c1
18 | – | 1520 nM | – | – | CN(C)CCOc1ccc(CCNC(=O)c2cc(Br)cs2)cc1Br
19 | – | – | 2130 nM | – | CN(C)CCOc1ccc(CCNC(=O)c2cccn2C)cc1Br
20 | – | 2520 nM | 1150 nM | – | O=C(NCCc1ccc(OCCN2CCC(F)C2)c(Br)c1)c1cc(Br)cs1 (stereo in doubt; 18d)
21 | – | 29100 nM | 12900 nM | – | O=C(NCCc1ccc(OCCN2CCOCC2)c(Br)c1)c1cc(Br)c[nH]1
22 | – | 750 nM | 330 nM | – | CC1CCCN1CCOc1ccc(CCNC(=O)c2cc(Br)cs2)cc1Br (single isomer, unassigned; enantiomer 2)
23 | – | 3990 nM | 1760 nM | – | CN(C)CCCOc1ccc(CCNC(=O)c2cccn2C)cc1Br
24 | – | 260 nM | 120 nM | – | O=C(NCCc1ccc(OCCN2CCCC2)c(Br)c1)c1cncs1
25 | – | – | 1550 nM | – | CN(C)CCOc1ccc(CCNC(=O)c2ccc[nH]2)cc1Br

— ChEMBL document CHEMBL1158433, “A novel class of H3 antagonists derived from the natural product guided synthesis of unnatural analogs of the marine bromopyrrole alkaloid dispyrin” (Bioorg Med Chem Lett, 2009)
